# Assay results taken from patent publication US9359341B2, “Aldehyde derivative of substitute oxazolidinones” (WANBURY LTD., priority 2012, dated 2016).
# Legend:
# [1] = Stability in buffer at various pH; type: physicochemical; settings: for Analyte Peak Area, Average: Standard average 39849828
# Procedure: (§1) On completion of incubation period, the solution is centrifuged and supernatant is taken. To the supernatant, ice cold acetonitrile containing IS is added, vortexed and injected into LCMS/MS.
# (§2) API 4000, ESI Agilent 1100 column: Gemini Nx 100 mm×4.6 mm 5.μ; column temperature: 30° C.; eluent A: 0.1% formic acid in water, eluent B: acetonitrile; gradient: 0-2.5 min 95% A, 5% B; 2.5-2.6 min 5% A, 95% B; 2.6-4.2 min 95% A, 5% B; flow rate: 0.8 ml/min; ESI. Q1:464.098, Q3:144.255
# (§3) Prepared 0.1 mol of citric acid and 0.2 mol of di sodium hydrogen phosphate in water. Buffer pH 2.2, 4 and 7.8 are prepared using citric acid and disodium hydrogen phosphate by adjusting the pH with 0.1N HCl or 1N NaOHpH 7.4: 8.89 g disodium hydrogen phosphate (Solution A) add to 1 liter of water, 1.5601 g sodium di-hydrogen phosphate (solution B) are made up to 1 liter with water; Solution A (19 ml) and Solution B (81 ml) are mixed. SIF/SGF: 2.38 g of SIF original powder (biorelavant media) is dissolved in 1 L of milliQ water. The pH of the solution is adjusted for SIF (7.4) and SGF (2.2) with 0.1N HCl. The ratios of the peak areas (F) at the respective time points in relation to the peak areas at the starting time are calculated
# [2] = Anticoagulant activity (PT, APTT) in human plasma; settings: PT and APTT, 0.1 to 1.0 μg/mL
# Procedure: The anticoagulant action of the test substance (compound formula-B) and rivaroxaban was determined in vitro using human plasma. The human plasma used for this experiment was separated from the blood collected in sodium citrate as anticoagulant. The prothrombin time (PT) was determined by using a commercial test kit (Neoplastin from Stagid) and APTT was determined using (Synthasil kit by IL). […] Coagulation was then started by addition of thromboplastin, and time when coagulation occurred was determined. The concentration of test substance which effected a doubling of prothrombin time was determined.
# plasma protein = test: Plasma protein binding (human); type: in vitro ADME
# Procedure: A compound solution (1 mM in DMSO) (5 μL), according to the invention is added to the respective plasma matrices of rat or human or mouse (1 ml).
# Add 150 ul of phosphate buffer to receiving side of the dialysis well. […] Precipitate with Acetonitrile and dilute samples prior to analysis in 1.5 ml polypropylene tubes. Remove 50 μl from the sample side of dialysis well and add 50 μl of phosphate buffer +300 μl of acetonitrile containing IS. Remove 50 μl from the buffer side of the dialysis well and add 50 μl of respective matrix plasma +300 μl of ACN. Then vortexed and centrifuged for 5 min, and supernatant is taken and injected into LCMS.
# Different test concentration ranging from 0.1 μM to 20 μM are made in methanol:water (90:10). Test solutions are added to the premixed matrix containing plasma:phosphate buffer (50:50). Precipitate with 300 μl of ice cold acetonitrile containing IS, vortexes and centrifuged. Supernatant is taken and injected into LCMS. Percentage of plasma protein binding was obtained via Equation(2):% Fraction unbound=(concentration on the buffer side/concentration on the sample side)*100 Table-7
# [3] = Intravenous and oral pharmacokinetics in Wistar rats; type: in vivo; settings: for plasma exposure (AUC, C max) as compared to Rivaroxaban: Wistar rats, IV 1 mg/kg and PO 10 mg/kg
# Procedure: On the day before administration of the substance, a catheter for obtaining blood is implanted in the jugular vein of the experimental animals (male Wistar rats, body weight 200-250 g) under Isofluran® anesthesia.
# Blood samples (8-12 time points) are taken through the catheter sequentially over the course of 24 h after administration of the substance. The administration volume is 10 ml/kg for oral and 1 ml/kg for IV in male Wistar rats. Intravenous administration is via a formulation of 2% N—N Dimethyl acetamide/ethanol 10%/PEG400 (30%)/water for IV injection (58%) and via Tween80/PEG400/sterile water in the case of oral administration. Removal of blood is after 0.08, 0.25, 0.5, 1, 2, 3, 4, 6, 8 and 12 hours in the case of IV and, blood withdrawn after 0.25, 0.5, 1.0, 2, 3, 4, 6, 8 and 12 hours for oral administration.
# Plasma is obtained by centrifuging the samples in heparinized tubes. IS containing Acetonitrile is added to a defined plasma volume per time point to precipitate proteins. After centrifugation, compound formula (B) and, where appropriate, known cleavage products of the compound formula (B) in the supernatant are determined quantitatively using a suitable LC/MS-MS method.
# The measured plasma concentrations are used to calculate pharmacokinetic parameters of the test substance and of the active ingredient compound (A) liberated there from, such as AUC, Cmax, T½ (half-life) and CL (clearance).
# Acetonitrile containing IS is added to the study samples, calibration samples and QCs, and the protein is precipitated using acetonitrile. Vortexed and centrifuged at 4000 rpm and the supernatant is injected by LC-MS/MS (API 4000, AB Sciex). Chromatographic separation is carried out on an Shimadzu UFLC. The injection volume is 10 μl. The separation column used is a Phenomenex Gemini NX 4.6×5μ. 100 mm, adjusted to a temperature of 30° C. […]
# The plasma concentration/time plots determined are used to calculate the pharmacokinetic parameters such as AUC, Cmax, MRT (mean residence time), t½ (half life) and CL (clearance) employing the validated pharmacokinetic calculation programs.
# [4] = Stability in simulating gastric fluid (SGF); type: physicochemical
# Procedure: as §1, §2, §3
# The peak area (F) is directly correlated to the amount of test compound which is quantified by the LC MS method.
# In simulating intestinal and gastric fluid, the area of the formula B compared with zero minute area to 120 min.
compound,measurement,setting,value
"O=CN(C[C@H]1CN(c2ccc(N3CCOCC3=O)cc2)C(=O)O1)C(=O)c1ccc(Cl)s1 [Compound formula B, 5-chloro-N-formyl-N-({(5S)-2-oxo-3-[4-(3-oxomorpholin-4-yl)phenyl]-1,3-oxazolidin-5-yl}methyl)thiophene-2-carboxamide]","Analyte Peak Area, Average","[1]; buffer pH 2.1, 24 hr room temperature",28315038 counts
same,"Analyte Peak Area, Average","[1]; buffer pH 4, 24 hr room temperature",34879190 counts
same,"Analyte Peak Area, Average","[1]; buffer pH 7.8, 24 hr room temperature",38907.5 counts
same,stability in varying pH buffer conditions,[1]; rivaroxaban formation observed by LCMS,degraded in varying pH buffer conditions
same,anticoagulant activity,[2],significant anticoagulant activity
same,Observation: amount of test product,plasma protein,Not quantificable amount
same,Observation: formed Rivaroxaban bound to plasma protein,plasma protein,found to be High bound to
same,"plasma exposure (AUC, C max) as compared to Rivaroxaban",[3],increased exposure
same,"plasma exposure (AUC, C max) as compared to Rivaroxaban",[3]; listed as Test product,higher
same,detectability of test substance in plasma,"[3]; after i.v. administration, at the first measurement point",no longer detectable in plasma
same,% Parent remaining,[4]; 30 min,99.27%
same,% Parent remaining,[4]; 60 min,101.17%
same,% Parent remaining,[4]; 120 min,100.05%
same,% Parent remaining,[4]; Zero min,100%
same,Conclusion (stability in SGF),[4]; up to 120 min,is stable
